Where “and” joins values, the source holds several entries; their conditions need not be identical. Equal entries are not always repeated.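 1) Cells in 96-well plates. 2) Compound, 48 h, 5 concentrations. 3) Linear interpolation between surrounding doses. 4) Unreached endpoint = highest concentration. GI50: concentration for 50% inhibition of growth. The concentration for full growth arrest is given as TGI.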
Legend:
Experiment in all cases: NCI-60 cell line screen, 48 h
[1] = tested on: RPMI-8226 leukemia
[2] = tested on: NCI-H460 lung
[3] = tested on: MCF7 breast
[4] = tested on: SK-MEL-2 melanoma
[5] = tested on: HCT-15 colon
[6] = tested on: SW-620 colon
[7] = tested on: SR leukemia
[8] = tested on: NCI-H226 lung
[9] = tested on: COLO 205 colon
[10] = tested on: MDA-MB-231 breast

| SMILES | GI50 [1] | TGI [1] | GI50 [2] | TGI [2] | GI50 [3] | TGI [3] | GI50 [4] | TGI [4] | GI50 [5] | TGI [5] | GI50 [6] | TGI [6] | GI50 [7] | TGI [7] | GI50 [8] | TGI [8] | GI50 [9] | TGI [9] | GI50 [10] | TGI [10] |
| --- | --- | --- | --- | --- | --- | --- | --- | --- | --- | --- | --- | --- | --- | --- | --- | --- | --- | --- | --- | --- |
| C#C[C@]1(O)CC[C@H]2[C@@H]3CC=C4c5nc(Nc6ccc(OC)cc6OC)sc5CC[C@]4(C)[C@H]3CC[C@@]21C | 0.248 µM | 0.804 µM | 2.65 µM | 10.3 µM | 0.978 µM | 2.65 µM | 1.23 µM | 6.39 µM | 1.3 µM | 4.2 µM | 1.55 µM | 3.71 µM | 0.523 µM | 11.2 µM | 2.3 µM | 6.23 µM | 2.14 µM | 4.78 µM | 1.26 µM | 5.34 µM |
| COC(=O)c1c2c(c(C)[n+]([O-])c1C)C(=O)C(NCc1ccc(F)c(Cl)c1)=CC2=O | 3.08 µM | 24.1 µM | 1.51 µM | 9.09 µM | 1.32 µM | 3.23 µM | 2.02 µM | 5.06 µM | 1.39 µM | 3.58 µM | 2.21 µM | 7.12 µM | 2.5 µM | > 100 µM | 2.98 µM | 9.32 µM | 0.588 µM | 2.29 µM | 1.76 µM | 5.6 µM |
| O=C1c2cccc3c(N4CCN(c5ccc6c7c(cccc57)C(=O)N(CCN5CCNCC5)C6=O)CC4)ccc(c23)C(=O)N1CCN1CCNCC1 | 2.45 µM | 8.55 µM | 12.5 µM | 80 µM | 11.2 µM | 41.1 µM | 24.7 µM | 67.5 µM | 11.3 µM | 31.3 µM | 7.64 µM | 77.7 µM | 2.64 µM | 8.66 µM | 12.4 µM | 29 µM | 8.87 µM | > 100 µM | 10.4 µM | 25.1 µM |
| O=[N+]([O-])c1ccc(N(CCO)CCO)c2c1no[n+]2[O-] | 1.22 µM | 4.08 µM | 0.645 µM | 2.72 µM | 1.21 µM | 10.2 µM | 1.8 µM | 4.78 µM | 1.56 µM | 7.06 µM | 1.32 µM | 3.71 µM | 0.215 µM | 0.899 µM | 2.01 µM | 6.59 µM | 0.852 µM | 2.22 µM | 2.29 µM | 14.3 µM |
| O=C1/C(=C\c2ccccc2)c2ccccc2N1Cc1ccccc1 | – | 9.28 µM | – | 19 µM | – | 12.3 µM | – | 17.1 µM | – | 14.5 µM | – | 15.1 µM | – | 9.66 µM | – | 35.6 µM | – | 33.3 µM | – | 13.3 µM |
| NC(N)=NC(N)=NCCc1ccccc1 | 11.1 µM and 7.54 µM | > 100 µM | > 100 µM | > 100 µM | > 100 µM | > 100 µM | > 100 µM | > 100 µM | > 100 µM | > 100 µM | > 100 µM | > 100 µM | 8.44 µM | > 100 µM | > 100 µM | > 100 µM | > 100 µM | > 100 µM | > 100 µM | > 100 µM |
| O=C(c1cccs1)c1c(C(F)(F)F)n([O-])c2cc(F)c(F)cc2[n+]1=O | 0.501 µM | 3.51 µM | 2.03 µM | 12.5 µM | 1.31 µM | 15.4 µM | 5.44 µM | 8.63 µM | 0.851 µM | 2.25 µM | 2.45 µM | 4.09 µM | 0.096 µM | 0.48 µM | 3.62 µM | 7.47 µM | 3.15 µM | 5.9 µM | 1 µM | 3.32 µM |
| Cc1cc(NC(=O)CCc2ccc(N3C(N)=NC(N)=NC3(C)C)cc2)ccc1S(=O)(=O)F | 0.464 µM | > 100 µM | < 0.0246 µM | 36.1 µM | 0.115 µM | > 25.1 µM | > 55.9 µM | > 100 µM | 4.51 µM | > 100 µM | 0.146 µM | > 100 µM | > 100 µM | > 100 µM | 18.4 µM | > 100 µM | 0.358 µM | > 100 µM | > 87.2 µM | > 100 µM |
| CCC(=S)N(C)O | – | 21.8 µM | – | 70.3 µM | – | > 100 µM | – | 86.6 µM | – | > 100 µM | – | > 100 µM | – | 24.1 µM | – | > 100 µM | – | > 79 µM | – | > 100 µM |
| NC(C(=O)O)C(N)C(=O)O (stereo not given) | – | > 100 µM | – | > 100 µM | – | > 100 µM | – | > 100 µM | – | > 100 µM | – | > 100 µM | – | > 100 µM | – | > 100 µM | – | > 100 µM | – | > 100 µM |
| CCN(C)S(=O)(=O)Nc1cccc(Nc2ncnc3cc(NC(=O)CCl)ccc23)c1Cl | 1.21 µM | 5.42 µM | 3.57 µM | 8.6 µM | 1.11 µM | 8.33 µM | 4.36 µM | 14.3 µM | 1.04 µM | 5.52 µM | 1.07 µM | 4.52 µM | 0.824 µM | 7.76 µM | 3.68 µM | 12.6 µM | 2.5 µM | 6.51 µM | 2.59 µM | 7.49 µM |
| C=C1CC2(OC1=O)c1ccccc1CCc1ccccc12 | – | 7.24 µM | – | 26.7 µM | – | 16.2 µM | – | 12.8 µM | – | 3.6 µM | – | 3.02 µM | – | 2.3 µM | – | 26.8 µM | – | 3.57 µM | – | 21.2 µM |
| O=S(=O)(Nc1ccc(Cl)c(C(F)(F)F)c1)c1ccc(-c2cnc(C3CC3)o2)cc1 | 1.35 µM | 5.64 µM | 0.102 µM | 10 µM | 0.132 µM | 5.23 µM | 0.343 µM | 3.67 µM | 0.156 µM | 5.57 µM | 0.175 µM | > 35.5 µM | 0.0822 µM | > 23 µM | 1.41 µM | 4.73 µM | 0.419 µM | 2.33 µM | 1.23 µM | 3.64 µM |
| CC1=COC2=C(C)C(=O)C(=O)c3c(C)ccc1c32 | – | 97.2 µM | – | 15.4 µM | – | 8.92 µM | – | > 40.1 µM | – | 11.5 µM | – | 28.9 µM | – | > 42.6 µM | – | 68.9 µM | – | 8.91 µM | – | 23.6 µM |
| CN(C)CCCC1(c2ccc(F)cc2)OCc2cc(-c3ccc4cc[nH]c4c3)ccc21 (stereo not given) | 2.5 µM | 6.04 µM | 1.79 µM | 3.49 µM | 1.65 µM | 3.24 µM | 2.19 µM | 4.72 µM | 1.7 µM | 3.14 µM | 1.83 µM | 3.64 µM | 2.41 µM | 5.41 µM | 10.7 µM | 29.3 µM | 2.11 µM | 4.68 µM | 1.65 µM | 3.22 µM |
| O=C1Nc2ccccc2SC1C1SC(=S)N(Cc2ccccc2)C1=O (stereo not given) | 0.488 µM | 7.39 µM | 8.21 µM | 29.8 µM | 1.21 µM | 14.4 µM | 18.6 µM | 37.4 µM | 3.37 µM | 16 µM | 2.39 µM | 13.6 µM | 4.03 µM | > 78.2 µM | 17 µM | 35 µM | 3.38 µM | 17.8 µM | 3.65 µM | 12.9 µM |
| N#Cc1ccc(-n2cnc(NC(=O)[C@H]3CCN(C#N)C3)c2)cc1 | 1.71 µM | 7.46 µM | 2.35 µM | > 34.7 µM | < 0.0378 µM | > 100 µM | 0.935 µM | 4.09 µM | 2.2 µM | > 100 µM | 1.46 µM | 26.4 µM | 0.375 µM | > 100 µM | 2.51 µM | 9.85 µM | 0.372 µM | 1.93 µM | 1.91 µM | > 91.6 µM |
